Measured values as given in patent publication EP0352652B1, “Use of imexone as an immunosuppressive agent” (BOEHRINGER MANNHEIM GMBH, priority 1988, dated 1990).

Columns and labels:
Walker-Sarkoma 256 = conditions: rats, after application of Imexon; cited from earlier work
humaner Lymphozyten = test: Phytohaemagglutinin (PHA)-induced proliferation of human lymphocytes (LTT), [3H]-thymidine incorporation; format: cell-based
Description: 1 ml humanes Vollblut wird mit 500 µg PHA-Lösung (500 µg/ml) und 48 ml DMEM-Mediun verdünnt. Jeweils 200 µl dieses Ansatzes werden mit 20 µl der zu testenden Imexonkonzentration in 6-fach-Ansätzen gemischt und 4 Tage inkubiert. Nach Pulsen mit [³H]-Thymidin wird weitere 24 h inkubiert, geerntet und ausgewertet wie bei Beispiel 2 beschrieben.

[1] = test system: Leukozyten; Antikörper bildende Milzzellen; conditions: after application of Imexon; cited from earlier work
Mäusestamm MRL 1pr/1pr = test: Autoimmune disease model in MRL mice (lymphadenomas, antinuclear autoantibodies), prophylactic and therapeutic treatment; format: in vivo, Maus
From the text: B. Synthese von antinukleâren Autoantikörpern. Zur Untersuchung des prophylaktischen Effektes von Imexon auf die Entwicklung dieser Symptome wurden 11 Wochen alte MRL Mäuse einmal täglich intraperitoneal mit den angegebenen Dosierungen Imexon und Cyclophosphamid behandelt. Dokumentiert wurden die Zahl der Lymphadenome und die Konzentration antinukleärer Antikörper. Bei der Untersuchung zur therapeutischen Potenz von Imexon wurden MRL Mäuse, […] jedes Tier mindestens ein Lymphadenom […] an Imexon und Cyclophosphamid behandelt. Die Meßparameter waren wiederum Zahl der Lymphadenome sowie Autoantikö[…].

humane B-Lymphozyten = test: BCGF-dependent proliferation of human B lymphocytes, [3H]-thymidine incorporation; format: cell-based
Description: Die Anreicherung von peripheren humanen B-Zellen und der BCGF-Proliferationsassay wurden wie folgt durchgeführt (vgl. a. Eur. J. Immun. 16, 350 (1986)): Angereicherte humane B-Lymphozyten werden zweimal gewaschen mit komplettiertem RPMI 1640 Medium (Streptomycin/Penicillin, L-Glutamin, 2-Mercaptoethanol, FCS) und auf 3 x 10⁵ Zellen/ml eingestellt. […] dieser Suspension werden jeweils pro Well in Mikrotiterplatten pipettiert. Als Pseudoantigen werden […] einer Lösung von HFCµS-IgG (300 µg/ml) zugegeben und als Wachstumsfaktor 20 µl BCGF (Cellular Products Incorporated) hinzugefügt. Dazu werden 20 µl der zu testenden Verbindung in 10facher Konzentration pipettiert. Die Kulturen werden insgesamt 140 h bei 37°, 5 % CO₂ und 95 % relativen Luftfeuchtigkeit inkubiert. 16 h vor Ablauf der Inkubationszeit wird jede Kultur mit 1 µ Ci einer [³H]-Thymidin-Lösung gepulst. Am Ende des Versuches werden die Zellen mit einem Harvester geerntet und die eingebaute Radioaktivität in einem Flüssigszintillationszähler bestimmt.

Milzzellen = test: Concanavalin A (ConA)-induced proliferation of murine splenocytes (LTT), [3H]-thymidine incorporation; format: cell-based, CB6F₁-Mäusen; conditions: for LTT (Splenozyten, ConA) ^3H-TdR cpm (n=6) x̄: 0,5 µg/ml ConA
Description: Milzzellen (4 x 10⁵) von CB6F₁-Mäusen werden mit 0,5 µg/ml ConA in Mikrotiterplatten (Nunc GmbH, Wiesbaden, FRG) und verschiedenen Konzentrationen von Imexon in 6-fach Ansätzen für insgesamt 48 h inkubiert. 5 h vor Ablauf der Inkubationszeit werden die Kulturen mit [³H]-Thymidin gepulst und anschließend auf Glasfiberfilterplattchen mittels eines Multisample Harvester (Skatron A.S., Lier, Norwegen) geerntet. Die Filterplättchen werden getrocknet, und die Radioaktivität in einem Packard Szintillationsspektrometer bestimmt.

[2] = test system: Methylcholanthren-induzierte Fibrosarkomzellinie (MethA); test: Tumour growth inhibition assay (TGI), spontaneous proliferation of MethA cells, [3H]-thymidine incorporation; format: cell-based, CB6F₁-Mäusen
Description: Die Methylcholanthren-induzierte Fibrosarkomzellinie (MethA) wurde aus der eigenen Tumorzellbank erhalten und intraperitoneal in CB6F₁-Mäusen passagiert.
1 x 10⁴ MethA-Zellen werden mit der zu testenden Imexonkonzentration in DMEM-Medium über 48 h inkubiert. 3 h vor Ablauf der Inkubationszeit wird mit [³H]-Thymidin gepulst, geerntet und ausgewertet wie bei Beispiel 2 beschrieben.

[3] = relative to suppression of BCGF-induced B-cell proliferation, not or only at these concentrations
[4] = prophylactic, 11-week-old MRL mice, once daily intraperitoneal
[5] = therapeutic, lymphoma-bearing MRL mice (ca. 14 weeks old), once daily
[6] = Homo sapiens, Lymphocyte, 140 h, read-out: BCGF (humane B-Lym-phozyten) %Hemmung

N=C1NC(=O)N2CC12 (stereo not drawn) [Imexon, 4-Imino-1,3-diazabicyclo-(3.1.0)-hexan-2-on]
Tumorwachstum von Walker-Sarkoma 256 (Walker-Sarkoma 256): Hemmung des Tumorwachstums
inhibition at 0.1 µg/mL (humaner Lymphozyten; Homo sapiens, Lymphocyte, Imexon 0.1 µg/ml, read-out: LTT (Splenozyten, PHA) %Hemmung): 5%
inhibition at 0.3 µg/mL (humaner Lymphozyten; Homo sapiens, Lymphocyte, Imexon 0.3 µg/ml, read-out: LTT (Splenozyten, PHA) %Hemmung): -3%
inhibition at 1 µg/mL (humaner Lymphozyten; Homo sapiens, Lymphocyte, Imexon 1 µg/ml, read-out: LTT (Splenozyten, PHA) %Hemmung): -11%
inhibition at 3 µg/mL (humaner Lymphozyten; Homo sapiens, Lymphocyte, Imexon 3 µg/ml, read-out: LTT (Splenozyten, PHA) %Hemmung): 19%
inhibition at 10 µg/mL (humaner Lymphozyten; Homo sapiens, Lymphocyte, Imexon 10 µg/ml, ** p < 0.001, read-out: LTT (Splenozyten, PHA) %Hemmung): 89%
inhibition at 30 µg/mL (humaner Lymphozyten; Homo sapiens, Lymphocyte, Imexon 30 µg/ml, ** p < 0.001, read-out: LTT (Splenozyten, PHA) %Hemmung): 99%
inhibition at 100 µg/mL (humaner Lymphozyten; Homo sapiens, Lymphocyte, Imexon 100 µg/ml, ** p < 0.001, read-out: LTT (Splenozyten, PHA) %Hemmung): 99%
minimal effective concentration (humaner Lymphozyten; Homo sapiens, Lymphocyte, induced by PHA, read-out: Konzentrationen, bei denen die Lymphozytenproliferation signifikant gehemmt wird): > 10 µg/mL
LTT (Splenozyten, PHA) ^3H-TdR cpm (n=6) x̄ (humaner Lymphozyten; Imexon 0.1 µg/ml): 41849 cpm
LTT (Splenozyten, PHA) ^3H-TdR cpm (n=6) x̄ (humaner Lymphozyten; Imexon 0.3 µg/ml): 45542 cpm
LTT (Splenozyten, PHA) ^3H-TdR cpm (n=6) x̄ (humaner Lymphozyten; Imexon 1 µg/ml): 49348 cpm
LTT (Splenozyten, PHA) ^3H-TdR cpm (n=6) x̄ (humaner Lymphozyten; Imexon 3 µg/ml): 35850 cpm
LTT (Splenozyten, PHA) ^3H-TdR cpm (n=6) x̄ (humaner Lymphozyten; Imexon 10 µg/ml): 4724 cpm
LTT (Splenozyten, PHA) ^3H-TdR cpm (n=6) x̄ (humaner Lymphozyten; Imexon 30 µg/ml): 573 cpm
LTT (Splenozyten, PHA) ^3H-TdR cpm (n=6) x̄ (humaner Lymphozyten; Imexon 100 µg/ml): 585 cpm
höhere Konzentrationen, bei denen die PHA-induzierte Lymphozytenproliferation beeinflußt wird (humaner Lymphozyten; [3]): 10-30 fach
Leukozyten [1]: Anstieg der Leukozyten
Zahl der Antikörper bildenden Milzzellen [1]: Anstieg der Zahl der Antikörper bildenden Milzzellen
Verträglichkeit (Mäusestamm MRL 1pr/1pr; MRL mice, once daily intraperitoneal): sehr guter Verträglichkeit
Konzentration DNA spezifischer Antikörper (Mäusestamm MRL 1pr/1pr; [4]): erniedrigt
Zahl spontan entstehender Lymphadenome (Mäusestamm MRL 1pr/1pr; [4]): erniedrigt
Titer der Autoantikörper (Mäusestamm MRL 1pr/1pr; [5]): nimmt dosisabhängig ab
Zahl der Lymphadenome (Mäusestamm MRL 1pr/1pr; [5]): nimmt dosisabhängig ab
Proliferation von B-Lymphozyten (humane B-Lymphozyten): dosisabhängig hemmt
inhibition at 0.1 µg/mL (humane B-Lymphozyten; [6]): 13%
inhibition at 0.3 µg/mL (humane B-Lymphozyten; [6]): 24%
inhibition at 1 µg/mL (humane B-Lymphozyten; [6]): 62%
inhibition at 3 µg/mL (humane B-Lymphozyten; [6]): 85%
inhibition at 10 µg/mL (humane B-Lymphozyten; [6]): 90%
inhibition at 30 µg/mL (humane B-Lymphozyten; [6]): 89%
inhibition at 100 µg/mL (humane B-Lymphozyten; [6]): 90%
minimal effective concentration (humane B-Lymphozyten; Homo sapiens, Lymphocyte, 140 h, read-out: Konzentration, bei der die BCGF-induzierte B-Zellproliferation signifikant und spezifisch supprimiert wird): 1 µg/mL
BCGF (humane B-Lym-phozyten) ^3H-TdR cpm (n=6) x̄ (humane B-Lymphozyten; Imexon 0.1 µg/ml, 140 h): 4847 cpm
BCGF (humane B-Lym-phozyten) ^3H-TdR cpm (n=6) x̄ (humane B-Lymphozyten; Imexon 0.3 µg/ml, 140 h): 4201 cpm
BCGF (humane B-Lym-phozyten) ^3H-TdR cpm (n=6) x̄ (humane B-Lymphozyten; Imexon 1 µg/ml, 140 h): 2096 cpm
BCGF (humane B-Lym-phozyten) ^3H-TdR cpm (n=6) x̄ (humane B-Lymphozyten; Imexon 3 µg/ml, 140 h): 831 cpm
BCGF (humane B-Lym-phozyten) ^3H-TdR cpm (n=6) x̄ (humane B-Lymphozyten; Imexon 10 µg/ml, 140 h): 574 cpm
BCGF (humane B-Lym-phozyten) ^3H-TdR cpm (n=6) x̄ (humane B-Lymphozyten; Imexon 30 µg/ml, 140 h): 617 cpm
BCGF (humane B-Lym-phozyten) ^3H-TdR cpm (n=6) x̄ (humane B-Lymphozyten; Imexon 100 µg/ml, 140 h): 562 cpm
LTT (Splenozyten, ConA) ^3H-TdR cpm (n=6) x̄ (Milzzellen; Imexon 0.1 µg/ml, 48 h): 109717 cpm
LTT (Splenozyten, ConA) ^3H-TdR cpm (n=6) x̄ (Milzzellen; Imexon 0.3 µg/ml, 48 h): 134032 cpm
LTT (Splenozyten, ConA) ^3H-TdR cpm (n=6) x̄ (Milzzellen; Imexon 1 µg/ml, 48 h): 119120 cpm
LTT (Splenozyten, ConA) ^3H-TdR cpm (n=6) x̄ (Milzzellen; Imexon 3 µg/ml, 48 h): 118487 cpm
LTT (Splenozyten, ConA) ^3H-TdR cpm (n=6) x̄ (Milzzellen; Imexon 10 µg/ml, 48 h): 24895 cpm
LTT (Splenozyten, ConA) ^3H-TdR cpm (n=6) x̄ (Milzzellen; Imexon 30 µg/ml, 48 h): 2509 cpm
LTT (Splenozyten, ConA) ^3H-TdR cpm (n=6) x̄ (Milzzellen; Imexon 100 µg/ml, 48 h): 903 cpm
inhibition at 0.1 µg/mL (Milzzellen; Splenocyte, 48 h, Imexon 0.1 µg/ml, read-out: LTT (Splenozyten, ConA) %Hemmung): 0%
inhibition at 0.3 µg/mL (Milzzellen; Splenocyte, 48 h, Imexon 0.3 µg/ml, read-out: LTT (Splenozyten, ConA) %Hemmung): -22%
inhibition at 1 µg/mL (Milzzellen; Splenocyte, 48 h, Imexon 1 µg/ml, read-out: LTT (Splenozyten, ConA) %Hemmung): -8%
inhibition at 3 µg/mL (Milzzellen; Splenocyte, 48 h, Imexon 3 µg/ml, read-out: LTT (Splenozyten, ConA) %Hemmung): -8%
inhibition at 10 µg/mL (Milzzellen; Splenocyte, 48 h, Imexon 10 µg/ml, ** p < 0.001, read-out: LTT (Splenozyten, ConA) %Hemmung): 77%
inhibition at 30 µg/mL (Milzzellen; Splenocyte, 48 h, Imexon 30 µg/ml, ** p < 0.001, read-out: LTT (Splenozyten, ConA) %Hemmung): 98%
inhibition at 100 µg/mL (Milzzellen; Splenocyte, 48 h, Imexon 100 µg/ml, ** p < 0.001, read-out: LTT (Splenozyten, ConA) %Hemmung): 99%
minimal effective concentration (Milzzellen; Splenocyte, 48 h, induced by ConA, read-out: Konzentrationen, bei denen die Lymphozytenproliferation signifikant gehemmt wird): > 10 µg/mL
höhere Konzentrationen, bei denen die ConA-induzierte Lymphozytenproliferation beeinflußt wird (Milzzellen; [3]): 10-30 fach
TGI (MethA) ^3H-TdR cpm (n=6) x̄ ([2]; Imexon 0.1 µg/ml, 48 h): 31722 cpm
TGI (MethA) ^3H-TdR cpm (n=6) x̄ ([2]; Imexon 0.3 µg/ml, 48 h): 37593 cpm
TGI (MethA) ^3H-TdR cpm (n=6) x̄ ([2]; Imexon 1 µg/ml, 48 h): 35475 cpm
TGI (MethA) ^3H-TdR cpm (n=6) x̄ ([2]; Imexon 3 µg/ml, 48 h): 35473 cpm
TGI (MethA) ^3H-TdR cpm (n=6) x̄ ([2]; Imexon 10 µg/ml, 48 h): 21913 cpm
TGI (MethA) ^3H-TdR cpm (n=6) x̄ ([2]; Imexon 30 µg/ml, 48 h): 911 cpm
TGI (MethA) ^3H-TdR cpm (n=6) x̄ ([2]; Imexon 100 µg/ml, 48 h): 534 cpm
inhibition at 0.1 µg/mL ([2]; Meth-A, 48 h, Imexon 0.1 µg/ml, read-out: TGI (MethA) %Hemmung): 7%
inhibition at 0.3 µg/mL ([2]; Meth-A, 48 h, Imexon 0.3 µg/ml, read-out: TGI (MethA) %Hemmung): -11%
inhibition at 1 µg/mL ([2]; Meth-A, 48 h, Imexon 1 µg/ml, read-out: TGI (MethA) %Hemmung): -4%
inhibition at 3 µg/mL ([2]; Meth-A, 48 h, Imexon 3 µg/ml, read-out: TGI (MethA) %Hemmung): -4%
inhibition at 10 µg/mL ([2]; Meth-A, 48 h, Imexon 10 µg/ml, ** p < 0.001, read-out: TGI (MethA) %Hemmung): 35%
inhibition at 30 µg/mL ([2]; Meth-A, 48 h, Imexon 30 µg/ml, ** p < 0.001, read-out: TGI (MethA) %Hemmung): 97%
inhibition at 100 µg/mL ([2]; Meth-A, 48 h, Imexon 100 µg/ml, ** p < 0.001, read-out: TGI (MethA) %Hemmung): 98%
minimal effective concentration ([2]; Meth-A, 48 h, spontaneous proliferation, read-out: Konzentration, ab der die Spontanproliferation von MethA-Sarkomzellen signifikant unterdrückt ist): > 10 µg/mL
höhere Konzentrationen, bei denen die spontane Proliferation von MethA beeinflußt wird [2, 3]: 10-30 fach
